Measurements from ChEMBL document CHEMBL5375989, “Pioneering 4,11-Dioxo-4,11-dihydro-1H-anthra[2,3-d]imidazol-3-ium Compounds as Promising Survivin Inhibitors by Targeting ILF3/NF110 for Cancer Therapy” (J Med Chem, 2023).

Assays:
L929 = assay: (§1) Antiproliferative activity against mouse L929 cells assessed as inhibition of cell growth measured after 48 hrs by MTT assay; assay type: toxicity, cell-based; details: l929
[1] = Selectivity index, ratio of IC50 for mouse L929 cells to IC50 for human A549 cells; assay type: toxicity; details: for selectivity ratio: L929 cells and A549 cells, read-out: Ratio IC50
A549 [2] = tested on: A549
Description: (§2) Antiproliferative activity against human A549 cells assessed as inhibition of cell growth measured after 48 hrs by MTT assay

[3] = as §1; assay type: toxicity, cell-based; details: mouse, L929 cells
A549 [4] = assay: cells; details: Homo sapiens, A549, 48 h
Description: as §2

TE-1 = assay: cells; details: Homo sapiens, TE-1, 48 h
Description: Antiproliferative activity against human TE-1 cells assessed as inhibition of cell growth measured after 48 hrs by MTT assay

5637 = assay: cells; details: Homo sapiens, 5637, 48 h
Description: Antiproliferative activity against human 5637 cells assessed as inhibition of cell growth measured after 48 hrs by MTT assay

| SMILES | IC50 (L929) | Ratio IC50 [1] | IC50 (A549 [2]) | IC50 at 48 h [3] | selectivity ratio [1] | IC50 (A549 [4]) | IC50 (TE-1) | IC50 5637 |
| --- | --- | --- | --- | --- | --- | --- | --- | --- |
| CS(=O)(=O)[O-].Cn1c[n+](C)c2c1C(=O)c1ccccc1C2=O | 700 nM | 1.8 | 400 nM |  |  |  |  |  |
| Cc1ccc(S(=O)(=O)[O-])cc1.Cn1c[n+](C)c2c1C(=O)c1ccccc1C2=O | 540 nM | 1.9 | 280 nM |  |  |  |  |  |
| CCCn1c[n+](CCC)c2c1C(=O)c1ccccc1C2=O |  |  |  | 9800 nM | 15.1 | 650 nM |  |  |
| CCc1n(C)c2c([n+]1C)C(=O)c1ccccc1C2=O |  |  |  | 5600 nM | 35 | 160 nM |  |  |
| CCc1n(C)c2c([n+]1C)C(=O)c1cc3ccccc3cc1C2=O |  |  |  | 14600 nM | 66 | 220 nM |  |  |
| O=C1c2ccccc2C(=O)c2c1n(Cc1ccccc1)c[n+]2Cc1ccccc1 |  |  |  | 39000 nM | 47.6 | 820 nM |  |  |
| Cn1c[n+](C)c2c1C(=O)c1cccc([N+](=O)[O-])c1C2=O |  |  |  | 17500 nM | 438 | 40 nM |  |  |
| COCCn1c[n+](CCOC)c2c1C(=O)c1ccccc1C2=O |  |  |  | 9900 nM | 16.2 | 610 nM |  |  |
| Cn1c2c([n+](C)c1-c1ccccc1F)C(=O)c1cc3ccccc3cc1C2=O |  |  |  | 10700 nM | 13 | 850 nM |  |  |
| Cn1c2c([n+](C)c1C1CC1)C(=O)c1ccccc1C2=O |  |  |  | 6200 nM | 78 | 80 nM |  |  |
| CCn1c[n+](CC)c2c(OC)ccc(OC)c21 |  |  |  | 95100 nM | 7 | 13600 nM |  |  |
| Cn1c[n+](C)c2c1C(=O)c1ccccc1C2=O.O=S(=O)([O-])C(F)(F)F | 2000 nM | 28.6 | 70 nM |  |  |  |  |  |
| CCn1c[n+](CC)c2ccccc21 |  |  |  | > 200000 nM | < 10 | > 100000 nM |  |  |
| Cn1c2c([n+](C)c1-c1ccccc1F)C(=O)c1ccccc1C2=O |  |  |  | 9200 nM | 10 | 920 nM |  |  |
| CCn1c[n+](CC)c2c1C(=O)c1ccccc1C2=O |  |  |  | 5200 nM | 86.7 | 60 nM |  |  |
| CCCCn1c[n+](CCCC)c2c1C(=O)c1ccccc1C2=O |  |  |  | 6000 nM | 11.8 | 510 nM |  |  |
| CC1=C(C)C(=O)c2c(n(C)c[n+]2C)C1=O |  |  |  | 119000 nM | 3.7 | 32100 nM |  |  |
| Cn1c2c([n+](C)c1-c1ccco1)C(=O)c1cc3ccccc3cc1C2=O |  |  |  | 8900 nM | 99 | 90 nM |  |  |

| SMILES | IC50 (L929) | Ratio IC50 [1] | IC50 (A549 [2]) | IC50 at 48 h [3] | selectivity ratio [1] | IC50 (A549 [4]) | IC50 (TE-1) | IC50 5637 |
| --- | --- | --- | --- | --- | --- | --- | --- | --- |
| Cc1n(C)c2c([n+]1C)C(=O)c1ccccc1C2=O |  |  |  | 2200 nM | 24 | 90 nM |  |  |
| Cn1c2c([n+](C)c1C1CC1)C(=O)c1cc3ccccc3cc1C2=O |  |  |  | 15400 nM | 171 | 80 nM |  |  |
| Cn1c2c([n+](C)c1-c1ccco1)C(=O)c1ccccc1C2=O |  |  |  | 7000 nM | 10 | 680 nM |  |  |
| CC(C)n1c[n+](C)c2c1C(=O)c1cc3ccccc3cc1C2=O |  |  |  | 84000 nM |  | 450 nM | 420 nM | 750 nM |
| COCCn1c2c([n+](C)c1C)C(=O)c1cc3ccccc3cc1C2=O |  |  |  | 11000 nM |  | 230 nM | 90 nM | 70 nM |
| CC(C)=CCn1c[n+](C)c2c1C(=O)c1cc3ccccc3cc1C2=O |  |  |  | 58700 nM |  | 1810 nM | 22000 nM | 1130 nM |
| Cc1n(C)c2c([n+]1C)C(=O)c1cc3ccccc3cc1C2=O |  |  |  | 15100 nM | 302 | 50 nM | 50 nM | 420 nM |
| Cn1c[n+](C)c2c(O)c3c(c(O)c21)C1C=CC3C1 (stereo not given) |  |  |  | 86000 nM | 2.7 | 31500 nM |  |  |
| Cn1c[n+](C)c2c1C(=O)c1ccccc1C2=O.F[P-](F)(F)(F)(F)F | 1800 nM | 10.6 | 170 nM |  |  |  |  |  |
| Cc1n(CC2OCCO2)c2c([n+]1C)C(=O)c1cc3ccccc3cc1C2=O |  |  |  | 79900 nM |  | 320 nM | 230 nM | 1650 nM |
| CC(C)n1c[n+](C(C)C)c2c1C(=O)c1ccccc1C2=O |  |  |  | 18600 nM | 29.5 | 630 nM |  |  |
| COCC[n+]1c2c(n(Cc3cnccn3)c1C)C(=O)c1cc3ccccc3cc1C2=O |  |  |  | 141000 nM |  | 4500 nM | 910 nM | 1050 nM |
| CCn1c2c([n+](CC)c1C)C(=O)c1cc3ccccc3cc1C2=O |  |  |  | 33800 nM |  | 70 nM | 420 nM | 880 nM |
| CC(C)Cn1c[n+](C)c2c1C(=O)c1cc3ccccc3cc1C2=O |  |  |  | 87400 nM |  | 1870 nM | 770 nM | 750 nM |
| O=C1c2ccccc2C(=O)c2c1n(-c1ccccc1)c[n+]2-c1ccccc1 |  |  |  | 66900 nM | 0.87 | 76700 nM |  |  |
| Cn1c[n+](C)c2c1C(=O)c1ccccc1C2=O.[I-] | 3520 nM | 117 | 30 nM |  |  |  |  |  |
| CCn1c2c([n+](C)c1C)C(=O)c1cc3ccccc3cc1C2=O |  |  |  | 23300 nM |  | 210 nM | 80 nM | 460 nM |
